Laboratory results: ChEMBL document CHEMBL6182847, “Design, synthesis, and biological evaluation of novel aminopyrimidine derivatives as EGFR inhibitors” (Bioorg Med Chem Lett, 2025)

Legend:
[1] = tested on: Epidermal growth factor receptor (Homo sapiens), P00533 [L858R,T790M,C797S]; settings: dose 500.0 nM
Description: Inhibition of EGFR L858R/T790M/C797S mutant (unknown origin) at 500 nM relative to control

[2] = target: Epidermal growth factor receptor (Homo sapiens, UniProt P00533, C797S/L858R/T790M); test: Inhibition of EGFR L858R/T790M/C797S mutant (unknown origin)
[3] = target: Epidermal growth factor receptor (Homo sapiens, UniProt P00533); test: Inhibition of wild-type EGFR (unknown origin)
[4] = cells; settings: Mus musculus, Ba/F3 EGFR-T790M/C797S/L858R
Description: Antiproliferative activity against mouse Ba/F3 EGFR-T790M/C797S/L858R cells

[5] = Potency index, ratio of Brigatinib IC50 to test compound IC50 for antiproliferative activity against mouse Ba/F3 EGFR-T790M/C797S/L858R cells; type: functional

Chain of Epidermal growth factor receptor (Homo sapiens, UniProt P00533) (P00533 whole entry): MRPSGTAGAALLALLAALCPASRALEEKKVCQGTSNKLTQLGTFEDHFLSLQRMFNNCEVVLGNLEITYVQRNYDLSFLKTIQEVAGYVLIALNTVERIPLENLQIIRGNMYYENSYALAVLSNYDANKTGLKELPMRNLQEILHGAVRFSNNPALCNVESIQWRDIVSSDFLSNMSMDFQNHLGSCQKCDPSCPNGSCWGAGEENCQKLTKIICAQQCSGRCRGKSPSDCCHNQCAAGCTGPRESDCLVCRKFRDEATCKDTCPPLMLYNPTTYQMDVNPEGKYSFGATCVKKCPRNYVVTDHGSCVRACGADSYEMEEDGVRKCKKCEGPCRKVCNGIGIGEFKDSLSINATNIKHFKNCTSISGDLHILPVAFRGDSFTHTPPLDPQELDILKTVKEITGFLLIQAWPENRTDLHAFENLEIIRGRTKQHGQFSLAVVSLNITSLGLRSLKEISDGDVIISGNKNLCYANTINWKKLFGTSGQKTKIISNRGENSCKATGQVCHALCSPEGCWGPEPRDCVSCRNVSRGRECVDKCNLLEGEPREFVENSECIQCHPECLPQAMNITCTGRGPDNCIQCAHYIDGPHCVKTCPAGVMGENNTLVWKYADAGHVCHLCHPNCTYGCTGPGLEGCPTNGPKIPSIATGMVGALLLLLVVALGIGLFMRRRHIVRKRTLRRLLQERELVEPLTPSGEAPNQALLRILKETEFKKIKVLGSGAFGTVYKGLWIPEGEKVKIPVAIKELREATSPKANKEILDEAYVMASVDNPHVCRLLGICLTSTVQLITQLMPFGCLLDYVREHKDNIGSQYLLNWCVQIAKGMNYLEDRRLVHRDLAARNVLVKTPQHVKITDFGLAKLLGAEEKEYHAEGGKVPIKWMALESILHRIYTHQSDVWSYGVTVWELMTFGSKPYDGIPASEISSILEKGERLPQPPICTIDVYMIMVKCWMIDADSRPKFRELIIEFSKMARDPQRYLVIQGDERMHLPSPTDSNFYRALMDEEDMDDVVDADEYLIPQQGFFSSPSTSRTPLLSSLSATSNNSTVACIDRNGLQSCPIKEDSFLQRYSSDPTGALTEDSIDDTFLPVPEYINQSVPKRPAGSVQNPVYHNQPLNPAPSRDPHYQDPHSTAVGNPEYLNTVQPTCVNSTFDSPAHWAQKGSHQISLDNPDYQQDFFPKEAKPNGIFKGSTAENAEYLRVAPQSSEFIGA
Chain of Epidermal growth factor receptor (Homo sapiens), P00533 [L858R,T790M,C797S] (P00533 whole entry T790M/C797S/L858R): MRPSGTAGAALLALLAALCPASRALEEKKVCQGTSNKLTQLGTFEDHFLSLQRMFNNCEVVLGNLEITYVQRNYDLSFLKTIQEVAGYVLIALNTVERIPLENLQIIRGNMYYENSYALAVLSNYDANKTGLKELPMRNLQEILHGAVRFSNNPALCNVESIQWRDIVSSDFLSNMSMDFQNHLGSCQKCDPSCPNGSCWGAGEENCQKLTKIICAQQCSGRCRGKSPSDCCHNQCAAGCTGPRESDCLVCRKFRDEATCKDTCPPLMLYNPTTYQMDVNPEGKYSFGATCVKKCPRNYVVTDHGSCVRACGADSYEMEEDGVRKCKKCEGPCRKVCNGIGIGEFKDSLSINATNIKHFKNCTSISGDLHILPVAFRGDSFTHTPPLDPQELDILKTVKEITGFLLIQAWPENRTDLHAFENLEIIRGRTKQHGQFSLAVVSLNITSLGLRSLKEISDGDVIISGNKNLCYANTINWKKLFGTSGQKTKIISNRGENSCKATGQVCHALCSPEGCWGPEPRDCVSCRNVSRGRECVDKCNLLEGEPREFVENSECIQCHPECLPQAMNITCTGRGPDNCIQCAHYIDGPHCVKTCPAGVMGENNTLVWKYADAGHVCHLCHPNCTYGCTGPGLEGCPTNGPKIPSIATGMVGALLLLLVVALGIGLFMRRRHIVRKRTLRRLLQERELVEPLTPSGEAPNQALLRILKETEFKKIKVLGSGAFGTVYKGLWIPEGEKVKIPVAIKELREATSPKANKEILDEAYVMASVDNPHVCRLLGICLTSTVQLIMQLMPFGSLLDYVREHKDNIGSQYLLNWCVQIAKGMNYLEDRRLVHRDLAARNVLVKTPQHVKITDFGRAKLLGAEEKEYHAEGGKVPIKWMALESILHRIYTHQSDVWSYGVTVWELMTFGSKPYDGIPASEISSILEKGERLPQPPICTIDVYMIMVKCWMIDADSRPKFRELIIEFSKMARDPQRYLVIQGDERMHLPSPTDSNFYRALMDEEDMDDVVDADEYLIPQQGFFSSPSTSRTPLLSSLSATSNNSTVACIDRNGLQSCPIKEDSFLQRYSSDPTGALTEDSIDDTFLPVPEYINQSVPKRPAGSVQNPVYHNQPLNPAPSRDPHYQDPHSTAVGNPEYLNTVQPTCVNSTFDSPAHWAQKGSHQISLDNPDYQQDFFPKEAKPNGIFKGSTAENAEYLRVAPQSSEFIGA
Chain of Epidermal growth factor receptor (Homo sapiens, UniProt P00533, C797S/L858R/T790M) (P00533 25-1210 T790M/C797S/L858R limits assumed): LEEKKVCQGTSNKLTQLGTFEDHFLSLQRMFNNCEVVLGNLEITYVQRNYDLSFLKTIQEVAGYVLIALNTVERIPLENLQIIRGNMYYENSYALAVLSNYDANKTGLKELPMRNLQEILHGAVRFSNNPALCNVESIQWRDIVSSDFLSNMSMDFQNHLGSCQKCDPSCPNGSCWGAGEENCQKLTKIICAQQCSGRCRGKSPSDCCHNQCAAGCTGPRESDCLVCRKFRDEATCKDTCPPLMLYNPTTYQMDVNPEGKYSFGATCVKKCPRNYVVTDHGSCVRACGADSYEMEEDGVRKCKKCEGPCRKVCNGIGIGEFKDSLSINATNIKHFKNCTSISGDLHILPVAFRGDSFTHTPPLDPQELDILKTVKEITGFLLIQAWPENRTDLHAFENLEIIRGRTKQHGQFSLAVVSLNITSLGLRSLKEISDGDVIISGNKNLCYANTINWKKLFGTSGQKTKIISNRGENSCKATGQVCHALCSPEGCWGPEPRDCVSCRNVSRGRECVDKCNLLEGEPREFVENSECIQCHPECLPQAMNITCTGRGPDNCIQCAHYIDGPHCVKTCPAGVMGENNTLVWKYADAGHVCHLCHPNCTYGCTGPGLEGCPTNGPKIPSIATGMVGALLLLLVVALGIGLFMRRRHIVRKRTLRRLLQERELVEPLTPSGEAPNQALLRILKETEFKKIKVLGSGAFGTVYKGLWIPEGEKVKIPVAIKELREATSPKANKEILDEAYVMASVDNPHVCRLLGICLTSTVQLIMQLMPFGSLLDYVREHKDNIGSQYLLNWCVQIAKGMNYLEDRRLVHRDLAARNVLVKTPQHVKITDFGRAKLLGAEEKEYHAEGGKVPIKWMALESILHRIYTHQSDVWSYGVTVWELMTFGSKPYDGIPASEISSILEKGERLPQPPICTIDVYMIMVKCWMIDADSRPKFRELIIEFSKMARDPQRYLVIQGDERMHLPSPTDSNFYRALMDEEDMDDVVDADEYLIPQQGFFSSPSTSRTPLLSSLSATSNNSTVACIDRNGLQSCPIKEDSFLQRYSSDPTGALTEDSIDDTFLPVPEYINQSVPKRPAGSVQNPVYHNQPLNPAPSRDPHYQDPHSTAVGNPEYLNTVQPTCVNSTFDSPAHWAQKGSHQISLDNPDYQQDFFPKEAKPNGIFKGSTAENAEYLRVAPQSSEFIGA

| SMILES | inhibition [1] [%] | also measured |
| --- | --- | --- |
| C=CC(=O)Nc1ccccc1-c1ccn(-c2nc(Nc3cc(C)c(N4CCC(N5CCN(C)CC5)CC4)cc3OC)ncc2Br)n1 | 79.9 | – |
| COc1cc(N2CCC(N3CCN(C)CC3)CC2)c(C)cc1Nc1nccc(-n2cc(NS(=O)(=O)C(C)C)cn2)n1 | 90.2 | – |
| COc1cc(N2CCC(N3CCN(C)CC3)CC2)c(C)cc1Nc1nccc(-n2cc(NC(=O)C3CC3)cn2)n1 | 89.8 | IC50 [2]: 37.6 nM; IC50 [3]: 338 nM; IC50 [4]: 136 nM |
| C=CC(=O)Nc1cnn(-c2ccnc(Nc3cc(C)c(N4CCC(N(C)C)CC4)cc3OC)n2)c1 | 61.1 | – |
| CCCS(=O)(=O)Nc1cnn(-c2ccnc(Nc3cc(C)c(N4CCC(N5CCN(C)CC5)CC4)cc3OC)n2)c1 | 89.1 | – |
| COc1cc(N2CCC(N3CCN(C)CC3)CC2)c(C)cc1Nc1nccc(-n2cc(NC(=O)C=C(C)C)cn2)n1 | 87.2 | IC50 [2]: 53.4 nM; IC50 [3]: 382 nM; IC50 [4]: 213 nM |
| COc1cc(N2CCC(N3CCN(C)CC3)CC2)c(C)cc1Nc1nccc(-n2cc(NS(=O)(=O)C3CC3)cn2)n1 | 93.2 | IC50 [2]: 18.8 nM; IC50 [3]: 159 nM; Ratio IC50 [5]: 5; IC50 [4]: 97.1 nM |
| CCS(=O)(=O)Nc1cnn(-c2ccnc(Nc3cc(C)c(N4CCC(N5CCN(C)CC5)CC4)cc3OC)n2)c1 | 89 | – |
| COc1cc(N2CCC(N3CCN(C)CC3)CC2)c(C)cc1Nc1nccc(-n2cc(NC(C)=O)cn2)n1 | 82.6 | – |
| CCS(=O)(=O)Nc1ccccc1-c1ccn(-c2nc(Nc3cc(C)c(N4CCC(N5CCN(C)CC5)CC4)cc3OC)ncc2Br)n1 | 71.4 | – |
| CCCCS(=O)(=O)Nc1cnn(-c2ccnc(Nc3cc(C)c(N4CCC(N5CCN(C)CC5)CC4)cc3OC)n2)c1 | 90.2 | – |
| C=CC(=O)Nc1cnn(-c2ccnc(Nc3cc(C)c(N4CCC(N5CCCC5)CC4)cc3OC)n2)c1 | 75.7 | – |
| C=CC(=O)Nc1cnn(-c2ccnc(Nc3cc(C)c(N4CCOCC4)cc3OC)n2)c1 | 48.5 | – |
| COc1cc(N2CCC(N3CCN(C)CC3)CC2)ccc1Nc1ncc(Cl)c(Nc2ccccc2P(C)(C)=O)n1 [BRIGATINIB] | – | IC50 [4]: 542 nM |
| C=CC(=O)Nc1cnn(-c2ccnc(Nc3cc(C)c(N4CCN(S(C)(=O)=O)CC4)cc3OC)n2)c1 | 54.3 | – |
| C/C=C/C(=O)Nc1cnn(-c2ccnc(Nc3cc(C)c(N4CCC(N5CCN(C)CC5)CC4)cc3OC)n2)c1 | 81.9 | – |
| COc1cc(N2CCC(N3CCN(C)CC3)CC2)c(C)cc1Nc1nccc(-n2cc(NS(C)(=O)=O)cn2)n1 | 88.1 | – |
| C=CC(=O)Nc1cnn(-c2ccnc(Nc3cc(C)c(N4CCN(C(C)=O)CC4)cc3OC)n2)c1 | 48.8 | – |
| COc1cc(N2CCC(N3CCN(C)CC3)CC2)c(C)cc1Nc1nccc(-n2cc(NC(=O)C(C)C)cn2)n1 | 80.4 | – |
| C=C(C)C(=O)Nc1cnn(-c2ccnc(Nc3cc(C)c(N4CCC(N5CCN(C)CC5)CC4)cc3OC)n2)c1 | 83.8 | – |
| C=CC(=O)Nc1cnn(-c2ccnc(Nc3cc(C)c(N4CCN(C(C)C)CC4)cc3OC)n2)c1 | 46.1 | – |
| C=CC(=O)Nc1cnn(-c2ccnc(Nc3cc(C)c(N4CCN(C)CC4)cc3OC)n2)c1 | 47.3 | – |
| C=CC(=O)Nc1cnn(-c2ccnc(Nc3cc(C)c(N4CCC(N5CCN(C)CC5)CC4)cc3OC)n2)c1 | 80 | IC50 [2]: 78.2 nM; IC50 [3]: 485 nM; IC50 [4]: 238 nM |
| COc1cc(N2CCC(N3CCN(C)CC3)CC2)c(C)cc1Nc1ncc(Br)c(-n2ccc(-c3ccccc3NS(=O)(=O)C3CC3)n2)n1 | 81.8 | IC50 [2]: 93.8 nM; IC50 [3]: > 5000 nM; IC50 [4]: 340 nM |
| CCC(=O)Nc1cnn(-c2ccnc(Nc3cc(C)c(N4CCC(N5CCN(C)CC5)CC4)cc3OC)n2)c1 | 85.4 | – |
